Consider 12 compounds from patent US20250099420A1, “SMALL MOLECULE MODULATORS OF GPR139 COMPLEX” (University of Florida Research Foundation, Incorporated, priority 2022, published 2025).

For one data set, the system named is parental HEK cells. Kind of data set: HEK parental Agonist Counterscreen Assay (non-transfected cells). It is filed as cell-based. The note with it: for Averaged Max % Response (±St. Dev.): activity relative to known control. From the text:
The high control for the agonist counterscreen was Forskolin not acetylcholine.
(In general: Counterscreens check selectivity or assay interference.)

In a further data set the target is T1, GPR139 (Homo sapiens, UniProt Q6DWJ6).
T1 sequence (Q6DWJ6 1-353): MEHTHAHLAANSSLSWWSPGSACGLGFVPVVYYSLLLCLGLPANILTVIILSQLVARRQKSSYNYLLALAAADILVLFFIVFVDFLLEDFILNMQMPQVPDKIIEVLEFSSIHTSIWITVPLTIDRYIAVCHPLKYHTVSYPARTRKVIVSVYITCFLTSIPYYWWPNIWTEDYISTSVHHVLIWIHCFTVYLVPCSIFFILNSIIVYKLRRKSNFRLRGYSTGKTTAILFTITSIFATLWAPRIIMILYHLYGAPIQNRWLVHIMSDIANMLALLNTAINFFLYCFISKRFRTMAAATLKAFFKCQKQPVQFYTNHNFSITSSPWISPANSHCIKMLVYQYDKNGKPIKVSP
Kind of data set: GPR139 Agonist titration / agonist counterscreen assay (calcium detection, HEK-GPR139 cells). The note with it: GPR139 Agonist Activity; for EC50: read-out: EC50; for Averaged Max % Response (±St. Dev.): activity relative to known control. Details: expressed in transfected cells; host or cells: HEK Aequorin cells, Maxcyte transient transfection. The format is cell-based. Here is the method: GPR activity was assessed using a calcium detection assay. […] Negative control samples were treated with DMSO. […] Intracellular calcium was measured using Calcium 5.

Where [1] appears, read: HEK Agonist Activity section of Table 4 (parental HEK counterscreen).
Where [2] appears, read: Homo sapiens, HEK293, HEK Agonist Activity section of Table 4 (parental HEK counterscreen).
[3] abbreviates: values printed in E-notation without unit.
Where [4] appears, read: Homo sapiens, HEK293, HEK Agonist Activity, parental non-transfected HEK cells.

Where two headings read alike, the source gives them in different places.

The term EC50 denotes the midpoint of the concentration-response curve. Regarding `COc1cccc(CNC(=O)Nc2ccc(-c3ccncc3)cc2)c1.O=C(O)C(F)(F)F` [SR-00000007266], in the data set with parental HEK cells (HEK Agonist Activity section), the “Lipophilic Efficiency (logD)” value is on record as 1.76, the “Lipophilic Efficiency (logP)” value is 1.75 and the “Averaged Max % Response (±St. Dev.)” value came to 23.72 ± 3.44%. Besides, in the data set with parental HEK cells (setting [1]), the EC50 is over 14100 nM. On GPR139, the “Efficiency Ligand” value is reported as 0.36, the “Hill Slope” value is 1.16, the “Lipophilic Efficiency (logD)” value came to 3.29 and the “Lipophilic Efficiency (logP)” value is reported as 3.29. Also, the “Averaged Max % Response (±St. Dev.)” value at GPR139 came to 100.59 ± 15.12%. Further, the EC50 on GPR139 (HEK-GPR139 cells) came out at 408 nM.

Turning to `O=C(CCOc1ccccc1)NCC1COc2ccccc2O1` (stereo not drawn) [SR-01000479007], in the data set on parental HEK cells (HEK Agonist Activity section), the “Lipophilic Efficiency (logD)” value is reported as 2.56, the “Lipophilic Efficiency (logP)” value amounted to 2.56 and the “Averaged Max % Response (±St. Dev.)” value amounted to 8.46 ± 4.77%. Further, the EC50 with parental HEK cells (setting [1]) is over 13200 nM. Further, at GPR139, the “Efficiency Ligand” value came out at 0.40, the “Hill Slope” value is reported as 1.21, the “Lipophilic Efficiency (logD)” value is given as 4.24 and the “Lipophilic Efficiency (logP)” value amounted to 4.24. Further, the “Averaged Max % Response (±St. Dev.)” value on GPR139 was found to be 101.79 ± 19.12%. In addition, the EC50 at GPR139 (HEK-GPR139 cells) turned out to be 277 nM.

Take `CC(Oc1ccc(Cl)cc1Cl)C(=O)NNC(=O)c1ccncc1` (stereo not drawn) [SR-01000319951]: the entries for the “Lipophilic Efficiency (logD)” value with parental HEK cells (HEK Agonist Activity section) and at GPR139 (based on logD) were 2.60 and 4.59, respectively. Besides, the “Lipophilic Efficiency (logP)” value in the data set with parental HEK cells (HEK Agonist Activity section) was 2.54; at GPR139 (based on logP), 4.53. Also, the figures for the “Averaged Max % Response (±St. Dev.)” value in the data set with parental HEK cells (HEK Agonist Activity section) and on GPR139 were 7.14 ± 13.31% and 97.49 ± 3.70%, respectively. Also, the EC50 was over 14100 nM in the data set on parental HEK cells (setting [2]) and 143 nM at GPR139 (setting [3]). In addition, the “Hill Slope” value at GPR139 (fitted dose-response curve) is 0.88. Further, at GPR139 (ligand efficiency), the “Efficiency Ligand” value is on record as 0.42.

On to `COc1ccc2cc(CCNC(=O)/C=C\c3ccc4c(c3)OCO4)c(=O)[nH]c2c1` [SR-01000124392], for which, in the data set with parental HEK cells (HEK Agonist Activity section), the “Lipophilic Efficiency (logD)” value was 2.31, the “Lipophilic Efficiency (logP)” value is recorded as 2.31 and the “Averaged Max % Response (±St. Dev.)” value was found to be 5.97 ± 7.64%. Moreover, the EC50 with parental HEK cells (setting [1]) is over 14100 nM. In addition, on GPR139, the “Efficiency Ligand” value worked out at 0.28, the “Hill Slope” value came out at 0.49, the “Lipophilic Efficiency (logD)” value turned out to be 3.17 and the “Lipophilic Efficiency (logP)” value was determined as 3.17. In addition, the “Averaged Max % Response (±St. Dev.)” value at GPR139 is reported as 80.01 ± 6.26%. In addition, the EC50 on GPR139 (HEK-GPR139 cells) was found to be 2000 nM.

With `CC(C)C(C)(C#N)NC(=O)CSc1nnc(Cc2cccc3ccccc23)n1N` (stereo not drawn) [SR-01000052065], the “Lipophilic Efficiency (logD)” value in the data set with parental HEK cells (HEK Agonist Activity section) was 2.71; at GPR139 (based on logD), 4.63. Besides, the “Lipophilic Efficiency (logP)” value with parental HEK cells (HEK Agonist Activity section) was determined as 2.62; on GPR139 (based on logP), 4.54. Besides, the EC50 in the data set on parental HEK cells (setting [1]) was over 15200 nM; on GPR139 (setting [3]), 182 nM. Moreover, the results for the “Averaged Max % Response (±St. Dev.)” value in the data set on parental HEK cells (HEK Agonist Activity section) and at GPR139 were 8.92 ± 9.62% and 98.20 ± 7.98%, respectively. Also, the “Hill Slope” value on GPR139 (fitted dose-response curve) is reported as 0.53. In addition, the “Efficiency Ligand” value on GPR139 (ligand efficiency) came to 0.33.

On to `COc1cc(NC(=O)NCCc2ccc3c(c2)CCCN3C)cc(OC)c1` [SR-01000923249], for which the “Lipophilic Efficiency (logD)” value with parental HEK cells (HEK Agonist Activity section) is reported as 1.46; on GPR139 (based on logD) it was 3.81. Besides, the “Lipophilic Efficiency (logP)” value in the data set on parental HEK cells (HEK Agonist Activity section) was 1.46; at GPR139 (based on logP) it was 3.81. Besides, the “Averaged Max % Response (±St. Dev.)” value is 25.04 ± 3.96% in the data set with parental HEK cells (HEK Agonist Activity section) and 93.59 ± 4.95% on GPR139. The EC50 is over 14100 nM in the data set with parental HEK cells (setting [2]) and 62.9 nM on GPR139 (setting [3]). Further, the “Hill Slope” value on GPR139 (fitted dose-response curve) is on record as 0.82. Also, the “Efficiency Ligand” value at GPR139 (ligand efficiency) came out at 0.37.

Take `Cc1ccc(CCNC(=O)Cn2cc3c(n2)CCCC3)cc1` [SR-01000137723]: the “Lipophilic Efficiency (logD)” value worked out at 1.70 in the data set on parental HEK cells (HEK Agonist Activity) and 5.09 at GPR139 (based on logD). For the same compound, the “Lipophilic Efficiency (logP)” value stood at 1.70 in the data set with parental HEK cells (HEK Agonist Activity) and 5.09 at GPR139 (based on logP). Besides, the “Averaged Max % Response (±St. Dev.)” value with parental HEK cells (HEK Agonist Activity) was −4.03 ± 1.74%; on GPR139, 136.99 ± 21.58%. Further, the values for the EC50 in the data set with parental HEK cells (setting [4]) and at GPR139 (setting [3]) were over 14100 nM and 5.7 nM, respectively. In addition, at GPR139 (fitted dose-response curve), the “Hill Slope” value is recorded as 0.44. Moreover, the “Efficiency Ligand” value on GPR139 (ligand efficiency) turned out to be 0.52.

With `O=C(C1CC1)N1CCc2cc(S(=O)(=O)NCC3COc4ccccc4O3)ccc21` (stereo not drawn) [SR-01000126429], in the data set with parental HEK cells (HEK Agonist Activity section), the “Lipophilic Efficiency (logD)” value is 2.75, the “Lipophilic Efficiency (logP)” value was 2.75 and the “Averaged Max % Response (±St. Dev.)” value is on record as 25.18 ± 6.22%. Also, in the data set on parental HEK cells (setting [2]), the EC50 was over 14100 nM. At GPR139, the “Efficiency Ligand” value stood at 0.29, the “Hill Slope” value came to 1.58, the “Lipophilic Efficiency (logD)” value was found to be 3.90 and the “Lipophilic Efficiency (logP)” value is 3.90. Also, the “Averaged Max % Response (±St. Dev.)” value at GPR139 was 78.64 ± 16.53%. Besides, at GPR139 (HEK-GPR139 cells), the EC50 worked out at 1000 nM.

For `O=c1nc(SCc2ccccc2F)c2c([nH]1)CCC2` [SR-01000914970], the “Lipophilic Efficiency (logD)” value in the data set with parental HEK cells (HEK Agonist Activity section) was 2.03; on GPR139 (based on logD) it was 3.98. The figures for the “Lipophilic Efficiency (logP)” value in the data set on parental HEK cells (HEK Agonist Activity section) and at GPR139 (based on logP) were 2.02 and 3.97, respectively. For the same compound, the EC50 in the data set with parental HEK cells (setting [1]) is over 14100 nM; at GPR139 (setting [3]), 158 nM. The “Averaged Max % Response (±St. Dev.)” value is given as −5.66 ± 4.95% with parental HEK cells (HEK Agonist Activity section) and 101.00 ± 9.27% at GPR139. Further, the “Hill Slope” value on GPR139 (fitted dose-response curve) is 0.53. Also, the “Efficiency Ligand” value at GPR139 (ligand efficiency) stood at 0.50.

In the case of `C=C(C)CN(CC)C(=O)CN1C(=O)NC(C)(c2ccc3ccccc3c2)C1=O` (stereo not drawn) [SR-01000048841], the “Lipophilic Efficiency (logD)” value with parental HEK cells (HEK Agonist Activity) is recorded as 2.25; at GPR139 (based on logD), 5.59. The “Lipophilic Efficiency (logP)” value in the data set with parental HEK cells (HEK Agonist Activity) worked out at 2.25; at GPR139 (based on logP), 5.59. The “Averaged Max % Response (±St. Dev.)” value stood at 15.49 ± 13.53% with parental HEK cells (HEK Agonist Activity) and 125.61 ± 14.18% at GPR139. Besides, the EC50 with parental HEK cells (setting [4]) was over 14800 nM; at GPR139 (setting [3]), 6.7 nM. For the same compound, the “Hill Slope” value at GPR139 (fitted dose-response curve) turned out to be 0.27. In addition, the “Efficiency Ligand” value at GPR139 (ligand efficiency) came to 0.41.

Turning to `CCOc1ccccc1NC(=O)CN1C(=O)NC(C)(c2ccc(Cl)cc2Cl)C1=O` (stereo not drawn) [SR-01000072797], in the data set on parental HEK cells (HEK Agonist Activity section), the “Lipophilic Efficiency (logD)” value was 1.39, the “Lipophilic Efficiency (logP)” value came out at 1.39 and the “Averaged Max % Response (±St. Dev.)” value is on record as 4.41 ± 6.50%. The EC50 with parental HEK cells (setting [1]) was over 14200 nM. In addition, on GPR139, the “Efficiency Ligand” value stood at 0.29, the “Hill Slope” value amounted to 0.87, the “Lipophilic Efficiency (logD)” value was 2.52 and the “Lipophilic Efficiency (logP)” value is 2.52. The “Averaged Max % Response (±St. Dev.)” value at GPR139 is listed as 94.94 ± 8.96%. In addition, the EC50 at GPR139 (HEK-GPR139 cells) is 1000 nM.

With `COc1ccccc1NC(=O)NNC(=O)CSc1cc(C)c(Br)cc1C` [SR-01000061624], the results for the “Lipophilic Efficiency (logD)” value in the data set with parental HEK cells (HEK Agonist Activity) and on GPR139 (based on logD) were 0.94 and 4.01, respectively. Besides, the “Lipophilic Efficiency (logP)” value in the data set on parental HEK cells (HEK Agonist Activity) came out at 0.93; on GPR139 (based on logP), 4.00. In addition, the “Averaged Max % Response (±St. Dev.)” value in the data set with parental HEK cells (HEK Agonist Activity) came out at 13.43 ± 5.07%; at GPR139, 120.81 ± 8.57%. The results for the EC50 with parental HEK cells (setting [4]) and at GPR139 (setting [3]) were over 14100 nM and 12 nM, respectively. Also, the “Hill Slope” value at GPR139 (fitted dose-response curve) turned out to be 1.00. At GPR139 (ligand efficiency), the “Efficiency Ligand” value is 0.43.
